The values below come from US20200400567A1, “FUSION POLYPEPTIDE” (PEKING UNIVERSITY, priority 2017, published 2020).

“And” between values parts separate entries of the source, which are not always exact repeats. Identical values can stand only once. “Also recorded” adds a separate entry of the source. Like-named read-outs stand apart in the source and are kept apart here.

Assay [1] has as its system human acetylcholine receptor M3R subtype. Kind of assay: GRAB-ACh sensor fluorescence response to ACh, drug perfusion in HEK293T cells. In kind it is cell-based. As for the experimental part:
After DNA encoding specific GRAB sensor was introduced into cells by transfection, fluorescence imaging combined with perfusion experiment was. The imaging capture of HEK293T cells was performed using an Olympus IX81 inverted microscope, 40×NA: 1.35 oil lens, 475/28 excitation light filter, and 515LP emission light filter. The optical signal was collected by a Zyla sCMOS DG-152V-Cle FI camera (Andor), and Lambda DG-4 from Sutter Instuments company was used as a fluorescent light source. The exposure time was set to less than 50 ms and the acquisition frequency was 5 seconds. The entire imaging system was overall controlled by micromanager software.
The detection of the response of the GRAB sensor to the ligand (ΔF/F0) was performed using a drug perfusion method. The cells were placed in a standard physiological solution, and the formula thereof is: […]
The pH of the physiological solution was adjusted to about 7.4, and the small molecule drug was diluted with a part of the physiological solution to formulate solutions of respective concentrations of the small molecule ligand. […] Unless explicitly specified, the concentration of isoproterenol (ISO) for perfusion was 2 μM, and the concentration of acetylcholine for perfusion was 100 μM.
The perfusion system was equipped on a microscope, including a solution-introduced system made of syringe for injection, a multi-way valve, an imaging workbench and a suction pump. During the perfusion process, the imaging workbench was placed above the objective lens of the inverted microscope, and then the slide on which cell plated were placed in the workbench. Perfusion of different drugs were performed by controlling the switches of different pipes. In order to control the level of the solution in the workbench, the perfusion speed was set to one drop or so per second. After each drug treatment, the cells were washed with a physiological solution for more than five minutes to ensure that there were no residual drugs that will affect subsequent experiments. After the end of each experiment, the perfusion pipe and the workbench were cleaned with 75% ethanol three times to ensure that the residual drugs and impurities were fully washed away.
Fluorescence imaging data was processed using ImageJ software. For the performance of GRAB sensors in HEK293T cells and neurons, the fluorescence of entire cell body was selected as the data processing region. For living Drosophila imaging, fluorescence images on the same Z axis were analyzed by ImageJ software. The change in the fluorescence signal was indicated by its relative difference. The signal of background area without the expression of the sensor was first subtracted from the fluorescence signal, so as to obtain the real expression of the intensity of the fluorescent protein. Then, by calculating the fluorescence value F after adding the drug and the average fluorescence value F0 before adding, the relative fluorescence change ΔF/F=(F−F0)/F0 was obtained as the fluorescence response of the sensor to a specific drug. The change of ΔF/F0 with time was further plotted by Origin 8.6 software.
Based on GRAB-ACh 1.0, this peptide linker was optimized. First, based on a flexible amino acid (glycine, alanine), the peptide segment was screened for optimal length. The specific strategy was to change the length of the peptide linkers at the N-terminus and C-terminus from 0 to 5 amino acids, respectively, and to randomly combine the N-terminus with C-terminus to obtain all possible permutations. Fusion protein expression vectors containing various arrangements were expressed in HEK293T cells and subjected to perfusion experiments.

Assay [2] has as its system human HTR2C receptor. In kind it is cell-based. Conditions: for agonist-induced change of GRAB-5-HT2.1 fluorescence signal: GRAB-5-HT2.1 in HEK293T cells; for antagonism of serotonin-induced increase of GRAB-5-HT2.1 fluorescence signal: antagonist added after serotonin.
Assay [3] deals with human ADRA2A receptor. In kind it is cell-based. As to the method:
The perfusion system was set on a microscope, and including a solution-introduced system, an imaging cell, and a suction pump. During the perfusion process, the imaging cell was placed above the objective lens of the inverted microscope, and the slide with cultured cells was placed in the cell. The perfusion experiments of different drugs were performed by controlling the switches of the different pipes of the solution-introduced system. The perfusion speed was set to one drop or so per second. In order to ensure the stability of the focal plane, the liquid level was kept constant at all times, and the flow rate of each solution was adjusted accordingly. The aspiration speed was adjusted to maintain the liquid level in the cell over the slide.
The region of interest (ROI) and background area were selected manually prior to the perfusion experiment. The exposure time was set to less than 50 ms and the acquisition frequency was 5 seconds. The solution used for the perfusion was a physiological solution 4k (pH 7.3-7.4), which was used to formulate the drug to the desired concentration. The running time of the program was set to no more than 5 min. After using 4k to balance and stabilize the cells for about 60-90 s, the cells were perfused with drug for 60 s, and then washed with 4k. The excitation light for green fluorescent protein was 488 nm, and for red fluorescent protein was 568 nm. The laser intensity was adjusted according to the working state of the laser and the expression level of the cells.
After the end of the program, the time-fluorescence intensity data sheet was exported. The background was subtracted from the ROI to get the corresponding fluorescence value Ft, and the average value of the fluorescence value before adding the drug was used as the starting fluorescence F0 to calculate
The detection of the response of the GRAB sensor to the ligand (ΔF/F0) was performed by drug perfusion. The cells were maintained in a standard physiological solution, and the formula thereof is: […]
Fluorescence imaging data was processed using ImageJ software. For the fluorescence performance of GRAB sensors in HEK293T cells and neurons, the entire cell body was selected as the data processing region. The change in the fluorescence signal was usually indicated by its relative intensity change. The background area without the expression of the sensor was first subtracted from the fluorescence signal, so as to obtain the true expression intensity of the fluorescent protein.

For assay [4], the system named is human DRD2 receptor. Put plainly: GRAB-GDA3.0 fluorescence response in HEK293T cells, drug perfusion. In kind it is cell-based. The settings on record: HEK293T cells. An excerpt: There are 5 subtypes of human dopamine receptors in the body, which are named DRD1-DRD5. For constructing a fluorescent sensor, the receptors were screened preliminarily by inserting a fluorescent protein at any position in the third intracellular loop of the receptor. […] Specifically, for the third intracellular loop of the human DRD2 receptor, the insertion sites were set every 15 amino acids. Human DRD2 receptors inserted with circular permutated fluorescent proteins at different positions were expressed in HEK293T cells, and drug perfusion experiments were conducted with dopamine. […] After the positions sensitive to conformational change were determined, the surrounding amino acid sites thereof were further screened. The sites surrounding the amino acid position 252 at N-terminus and the sites surrounding the amino acid position 357 at the C-terminus were combined and different sensors were constructed. The sensors were expressed in HEK293T cells and subjected to drug perfusion experiments with dopamine. […] The peptide linkers were GG at the N-terminus and GGAAA at the C-terminus.

The subject of assay [5] is GRAB-GDA3.0 signal in mushroom body (MB). Kind of assay: Odor-stimulated GRAB-GDA3.0 signal in mushroom body, in vivo two-photon imaging. The arrangement: species or system Drosophila. The settings on record: 10 μM antagonist in imaging solution, n=6. As to the method:
Drosophila were kept in a 25-degree incubator with a standard medium. […] The adult Drosophila to be tested were transferred to a new culture tube within 0-2 days after emergence, and left at room temperature for 8-12 days. Before the imaging, the Drosophila were first fixed in a small dish, and then the square skull part near the eye was surgically removed to expose part of the brain. The adipose tissue and air sacs near the antennal lobes to be imaged were surgically removed to prevent interference with the fluorescent signal. In order to further reduce the degradation of image quality caused by the movement of Drosophila during the imaging, surgical forceps were used to cut the muscles underneath its halter. Throughout the dissection and imaging procedures, the brain of Drosophila was kept in a pre-chilled physiological solution, and the formula thereof is as follows: […]
Drosophila imaging was performed using an Olympus two-photon microscope, including Olympus BX61 WI microscope, 25×NA: 1.05 water lens, and Ti:Sapphire laser mode-locked laser for two-photon excitation. For GRAB sensor imaging experiments, the wavelength of the […] was set to 950 nm in order to successfully excite the fluorescent protein to produce fluorescence. The odor molecule isoamyl acetate (IA) used for stimulating Drosophila was purchased from Sigma, and was diluted in mineral oil at a ratio of 1:100. In the experiment, the isoamyl acetate was further diluted 5-40 times by mixing with air. The air mixed with odor molecules was provided at a position about 1 cm away from the tentacles of the Drosophila through a cavity about 1 cm wide on the experimental table. The odor molecule of different concentrations was tested by controlling the airflow. Each imaging cycle was 17.8 seconds, of which 5 to 10 seconds was the time for providing specific odor molecules. After the imaging experiment for odor function, the imaging area was scanned layer by layer with high resolution setting to obtain the distribution information of the olfactory bulb, which was later identified based on the information of olfactory bulb distribution at the antennal lobe reported in the literature.
The transgenic Drosophila UAS-GRAB-GDA3.0 was constructed to express the GRAB-GDA3.0 sensor in specific cells, driven by the corresponding GAL4 strain. First, GRAB-GDA3.0 was expressed in dopaminergic neurons (DAN) in all Drosophila, and the response induced by odor (isoamyl acetate) was examined by in vivo two-photon imaging (FIG. 39A).
A pharmacological study was performed on GRAB-GDA3.0.
The rate of GDA signal attenuation between normal Drosophila and Drosophila with reduced DAT expression was compared (this is the experiment of gene level research using DAT-RNAi described later). In DAN, the dopamine transporter (DAT) is located in the presynaptic membrane and […] DA intermittently and cyclically from the synapse. DAT-RNAi was used to inhibit DAT expression in DAN (FIG. 40G).

For assay [6], the system named is human acetylcholine receptor M3R subtype. Kind of assay: GRAB-ACh 2.0 kinetics, rapid local perfusion with high-speed line scanning. In kind it is cell-based. As to the method:
For the detection of GRAB sensor kinetics, a local drug delivery system was used for the experiment. The experiment was performed using an Olympus upright microscope BX51, wherein a 40×NA: 0.80 water lens was used for imaging, and a 710M camera (DVC) was used for image acquisition. The drug delivery system was controlled by ROE-200 (from Sutter instruments company), and the position of the drug delivery needle was controlled by the MPS-1 operating lever. For the dynamic characterization experiment of the sensor, the imaging was processed using a frequency of 50 HZ (with a resolution of 768×484 pixels) and a surface element partition of 2×2.
The Journal of pharmacology and experimental therapeutics 330, 660-668 (2009)) reduced the fluorescence signal in GRAB-ACh 2.0 expressing cells perfused with 100 μM ACh, with a smaller time constant of 762±75 ms (FIGS. 14b-c, right panel).
Target sequence in this assay (as listed by the source): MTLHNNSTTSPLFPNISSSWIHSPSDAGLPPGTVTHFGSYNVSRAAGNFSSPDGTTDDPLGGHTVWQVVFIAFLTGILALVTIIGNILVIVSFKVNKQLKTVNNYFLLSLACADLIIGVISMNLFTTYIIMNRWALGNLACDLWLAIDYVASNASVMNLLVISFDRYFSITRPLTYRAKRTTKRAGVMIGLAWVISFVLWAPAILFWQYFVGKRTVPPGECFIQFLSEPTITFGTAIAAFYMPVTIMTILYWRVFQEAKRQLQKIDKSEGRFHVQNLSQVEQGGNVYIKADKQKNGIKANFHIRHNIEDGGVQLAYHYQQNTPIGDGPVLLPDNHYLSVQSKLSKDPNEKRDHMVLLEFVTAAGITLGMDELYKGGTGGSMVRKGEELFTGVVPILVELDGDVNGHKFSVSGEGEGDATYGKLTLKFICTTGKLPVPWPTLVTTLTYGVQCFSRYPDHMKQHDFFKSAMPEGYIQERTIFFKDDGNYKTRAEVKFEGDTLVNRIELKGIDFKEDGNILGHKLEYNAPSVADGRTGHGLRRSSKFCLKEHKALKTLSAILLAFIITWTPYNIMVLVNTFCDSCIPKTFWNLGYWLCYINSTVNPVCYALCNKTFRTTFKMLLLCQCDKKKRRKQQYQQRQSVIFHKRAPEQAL

`CCCN(CCC)CC1CCCCN1CCNC(=O)N1c2ccccc2C(=O)Nc2cccnc21` (centres unmarked) [AF-DX384]: the “effect of M3R antagonist on ACh-induced increase of fluorescence” value in assay [1] (GRAB-ACh 2.0 in HEK293T cell) is listed as “completely blocked”.

With `CC(N)Cc1c[nH]c2ccc(OCc3cccs3)cc12` (centres unmarked) [BWT23C83], in assay [2], the “agonist-induced change of GRAB-5-HT2.1 fluorescence signal” value was “cannot cause the change; also recorded: cannot change the fluorescent signal”. On the same count and under the same terms, to `CN1CCN(c2nc3cc(C(F)(F)F)ccc3n3cccc23)CC1.O=C(O)/C=C\C(=O)O.O=C(O)/C=C\C(=O)O` [CGS12066B] belongs “cannot cause the change; also recorded: cannot change the fluorescent signal”; to `Clc1cccc(COc2cncc(N3CCNCC3)n2)c1` [CP809], “can cause the fluorescence signal change; also recorded: can induce changes in fluorescent signal”. As to `CNC[C@H](O)c1ccc(O)c(O)c1` [Epi, Epinephrine], in assay [3], the “activation of GRAB-NE2.1 fluorescence signal by ligand” value (“activation … by ligand” for short) is recorded as “can activate” and the “fluorescent signal change of GRAB-NE2.0 to ligand” value (shortened to “fluorescent signal change”) is “exhibits a fluorescent signal change”.

Turning to `Nc1nc2c(ncn2[C@@H]2O[C@H](COP(=O)(O)OP(=O)(O)OP(O)(O)=S)[C@@H](O)[C@H]2O)c(=O)[nH]1` [GTPγS], in assay [3] (PTX co-transfection or GTPγS with digitonin), the “effect of Gαi inhibition on concentration-dependent curve of GRAB-NE2.0 to NE” value is on record as “did not change the concentration-dependent curve”. Take `CC(C)NCC(O)c1ccc(O)c(O)c1` (centres unmarked) [ISO, Isoproterenol]: the “fluorescent signal change” value in assay [3] (GRAB-NE2.0, saturated concentration) is “no response”. Also, in assay [3] (cells expressing GRAB-NE2.1), the “activation … by ligand” value is reported as “cannot”. In the case of `NC[C@H](O)c1ccc(O)c(O)c1` [NE, Norepinephrine], in assay [3], the “activation … by ligand” value is reported as “can activate” and the “fluorescent signal change” value is “exhibits a fluorescent signal change”. For the compound `COc1cc(OC)c(C(=O)CCCCN2CCC3(CC2)NC(=O)NC3=O)cc1NS(=O)(=O)c1ccc(C(F)(F)F)cc1` [RS102221], the “antagonism of serotonin-induced increase of GRAB-5-HT2.1 fluorescence signal” value in assay [2] was “can antagonize; also recorded: can inhibit”. For `Cc1cc(NC(=O)Nc2ccc3c(ccn3C)c2)sn1` [SB204741], the “antagonism of serotonin-induced increase of GRAB-5-HT2.1 fluorescence signal” value in assay [2] was “cannot antagonize; also recorded: failed to inhibit”.

Take `NCCc1ccc(O)c(O)c1` [dopamine, Dopamine]: the “activation or block of GRAB-GDA3.0” value in assay [4] is on record as “activated”. Consider `NC1=NCC2c3ccccc3Cc3ccccc3N12` (centres unmarked) [epinastine], for which, in assay [5], the “effect on odor (IA)-stimulated GDA signal in MB β' lobe” value was “cannot be blocked; also recorded: failed to be blocked”. A word on the EC50: it is the concentration at which the effect is half-maximal. Low readings indicate higher potency in that assay, high ones lower potency in that assay. The term pEC50 denotes the negative decadic logarithm of the EC50, by convention in mol/L. As for “GRAB-ACh 2.0: GRAB-ACh variant with GG-APSVA peptide linkers, SEQ ID NO: 16”, in assay [1] (100 μM ACh perfusion, HEK293T cells), the ΔF/F0 peak response is ~100% and 90.12±1.74% and 94.0±3.0% and 90%. This compound also came in with an EC50 in assay [1] (ACh 10 nM to 100 μM, Boltzmann fit, n=4) of approximately 700 nM. The same compound gave a ΔF/F0 response in assay [1] (ACh (100 μM), second round screening, HEK293T cells) of approximately 0.9. The same compound returned a pEC50 in assay [1] (dose-dependent response to ACh) of 6.12 ± 0.11. Moreover, the “time constant of fluorescence increase” value in assay [6] (ACh perfusion, single scan) was 185 ms. In addition, the “time constant of fluorescence decrease” value in assay [6] (Tio perfusion, single scan) was 696 ms. Besides, the “average on time constant” value in assay [6] (local ACh perfusion, single exponential fit, n=18) is 279.4 ± 32.6 ms and 280 ± 32 ms. Further, in assay [6] (local antagonist perfusion in 100 μM ACh, n=11), the “average off time constant” value is 762.3 ± 74.9 ms and 762 ± 75 ms.
